Measured values: US20060210491A1, “Flavoured mouth wash composition” (priority 2003, published 2006)
≈ marks a conversion by molar mass, not a printed value. Read-outs that look alike come from different tables or passages of the source.

Key:
[1] = test system: protease activity (arg-gingipain) of Porphyromonas gingivalis; assay: Protease enzyme assay (BAPNA substrate), synergy of flavour material with antimicrobial agent; assay type: biochemical, Porphyromonas gingivalis W50; details: compared with flavour material alone; for Classes of Synergy, increase in inhibition; Antimicrobial Agent Triclosan: flavour material 2500 ppm and 5000 ppm plus sub-MIC triclosan; for Classes of Synergy, increase in inhibition; Antimicrobial Agent Zinc Sulphate: flavour material 2500 ppm and 5000 ppm plus sub-MIC zinc sulphate
Procedure: The following assay was used to investigate the inhibition of protease activity (arg-gingipain) of the micro-organism Porphyromonas gingivalis (implicated in gum disease) by a flavour material or mixture of flavour materials.
Fresh buffer was prepared immediately before beginning the assay in the following manner: 3.029 g of Tris Base (Sigma, Poole, UK), 394 mg of L-cysteine hydrochloride (Sigma, Poole, UK) and 367.5 mg of calcium chloride dihydrate (Sigma, Poole, UK) were dissolved in 150 ml deionised water. In order to allow for pH differences resulting from any variation in ambient temperature, the temperature of the buffer was taken. The pH of TRIS buffers varies with temperature i.e. Δ pH=−0.031/° C. This assay should be carried out at a temperature of 30° C., with the buffer having a pH of 8.0. Thus, if the measured temperature of the buffer is, for example, 22° C. (room temperature) the pH should be adjusted to 8.24 with 2M hydrochloric acid, in order to give the desired conditions i.e. pH=8.0 at 30° C. After adjusting the pH, the buffer was made up to 200 ml with deionised water and incubated in a water bath at 30° C. for approximately one hour to reach temperature equilibrium before commencing the assay.
The enzyme substrate BAPNA (DL-α-benzoyl-DL-arginyl-p-nitro-anilide) (Sigma) is the synthetic substrate for the protease enzyme produced by the bacterium Porphyromonas gingivalis. The substrate is degraded by enzymes which show specificity for cleaving adjacent to arginine residues. This cleavage yields a yellow nitro-aniline product, which can be readily detected spectrophotometrically at 405 nm. 10.87 mg of the BAPNA substrate was added to 0.5 ml of dimethylsulphoxide (DMSO) and thoroughly dissolved. 9.5 ml of deionised water was then added. The resulting solution was then mixed by vortex and incubated at 30° C. in a water bath for about one hour before commencing the assay to allow temperature equilibration.
Porphyromonas gingivalis W50 ATCC 53978 (American Type Culture Collection (ATCC), P.O. Box 1549, Manassas, Va. 20108, USA) (may also be obtained from Prof. Philip Marsh, Centre for Applied Microbiology and Research, Salisbury, Wiltshire, SP4 OJG, UK) was sub-cultured from frozen stock cultures onto Schaedler Anaerobic Agar (Oxoid, Basingstoke, UK), and supplemented with 5% v/v horse blood (E&O Laboratories, Bonnybridge, Scotland, FK4 2HH). The plates were incubated at 37° C. in an anaerobic cabinet (Don Whitley Scientific, Shipley, UK) for 3-5 days. Single colonies grown on these plates were then inoculated into 250 ml Schaedler Anaerobic Broth (SAB) contained in bottles with cotton wool stoppers. The broths were then incubated in an anaerobic cabinet and allowed to grow for 3-5 days. This generally yielded a culture with an absorbance at 540 nm (A540) between 0.2 and 0.4.
Into 1.5 ml disposable plastic cuvettes was added 0.7 ml of assay buffer, followed by 0.2 ml of BAPNA solution and 0.1 ml of bacterial culture. The cuvettes were capped and mixed, then placed in a Pye Unicam 8620 Spectrophotometer (Pye Unicam, Cambridge, UK). The increase in absorbance at 405 nm […] was recorded over a period of 3 minutes.
The percentage inhibition of protease by a given flavour/flavour material was determined by the formula: [formula]
The synergy between flavour/flavour material and an antimicrobial agent against the protease activity of Porphyromonas gingivalis was then determined in the following manner. Firstly, the MIC value of the antimicrobial agent required to cause any inhibition of protease activity was determined using the method generally described in Example 1 for the determination of the MIC value of triclosan. […] The dilution immediately lower than the MIC value was selected as the sub-IC concentration of antimicrobial agent. All flavour materials were tested at 2500 ppm and 5000 ppm.
The percentage inhibition of protease by the flavour material and antimicrobial agent was determined as described above.

[2] = test system: S. mutans; assay: Potential synergy of triclosan with flavour materials (growth at sub-MIC concentrations); assay type: cell-based, Streptococcus mutans; details: for Synergy Shown: flavour material with triclosan against S. mutans; for 50% MIC without triclosan: growth of S. mutans with flavour material at 50% of its MIC alone; for 50% MIC and 8 ppm triclosan: growth of S. mutans with flavour material at 50% of its MIC plus 8 ppm triclosan
Procedure: This example describes a method for determining the potential synergy of triclosan with flavour materials against S. mutans.
A microtitre method using the procedure described below was employed.
Flavour materials were assessed at a final concentration of 50% of the MIC value determined according to Example 1 above, in combination with triclosan at 8 ppm, i.e. about 50% of the MIC value also determined as described in Example 1. Inhibition of growth by this combination of sub-MIC concentrations of flavour material and triclosan was taken to indicate antimicrobial synergy between the flavour material and triclosan.
100 μl of stock solution was added to the appropriate well of a standard 96-well microtitre plate. An equivalent volume of bacterial stock inoculum solution (prepared as in Example 1) was added giving the desired dilution in each well. A blank plate was prepared using the same process except that 100 μl of SAB was added instead of bacterial culture. The protocol for incubation, reading of results and interpretation was as described in Example 1.

[3] = test system: Streptococcus mutans R9; assay: Minimum inhibitory concentration (MIC), microtitre broth dilution; assay type: cell-based
Procedure: The minimum inhibitory concentration of an antimicrobial agent (triclosan), and a flavour material or mixture of flavour materials (flavour), was determined by the following method.
A culture of the test strain Streptococcus mutans R9, deposited under the Budapest Treaty with National Collections of Industrial, Food and Marine Bacteria Limited, 23 St Machar Drive, Aberdeen, AB24 3RY, Scotland, UK on 22nd Jan. 2004 and given accession number NCIMB 41209) (may also be obtained from Prof. Philip Marsh, Centre for Applied Microbiology and Research, Salisbury, Wiltshire, SP4 OJG, UK) was grown in 250 ml of PM broth (containing: peptone, 2% w/v; tryptone, 1% w/v; yeast extract, 1% w/v; KCl, 0.25% w/v; of approximately pH 7), anaerobically at 37° C. for 48 hours. The absorbance of the culture at 540 nm (A540) was measured and adjusted if necessary to between 0.2-0.3 by diluting with fresh (i.e. sterile) PM broth. The culture was then diluted in Schaedler Anaerobic Broth (SAB) (Oxoid, Basingstoke, UK) in a ratio of 1 part culture to 25 parts broth to give a stock inoculum culture.
Determination of the MIC of Triclosan Against S. mutans
Triclosan powder was dissolved in AR-grade ethanol, to a concentration of 32,000 ppm (3.2% w/v). This was diluted in Schaedler Anaerobic Broth (SAB) to yield two stock triclosan solutions of concentrations: 320 ppm (0.032% w/v) and 64 ppm (0.0064% w/v).
200 μl of the 320 ppm triclosan stock solution was then added to the first and seventh well of row A on a standard 96-well microtitre plate. All remaining wells in this row were filled with 100% of sterile SAB. The contents of well 1 and the contents of well 7 were independently mixed by repeatedly sucking the contents up and down a pipette tip. 100 μl from well 1 was transferred to the second well of row A and 100 μl from well 7 was transferred to the eighth well of row A. This process was repeated along the row until the sixth and twelfth wells contained 200 μl. After mixing, 100 μl from wells 6 and 12 was discarded to waste. Each successive well in row A therefore contained a two-fold dilution of triclosan compared with the preceding well (i.e. 80 ppm in wells 2 and 8; 40 ppm in wells 3 and 9, etc.), resulting in wells 6 and 12 having a concentration of 5 ppm. A similar series of dilutions was repeated starting with the 64 ppm triclosan stock solution into row B on a microtitre plate. This gave a range of triclosan concentrations from 32 ppm to 1 ppm following the dilution process described. Finally, 100 μl of the pre-diluted stock inoculum culture was added to all wells, thus giving a final volume of 200 μl in each well. Wells 1 and 7 of row A therefore contained a final concentration of 160 ppm triclosan.
A blank plate was prepared for each of the two samples by repeating the process described above, except that 100 μl of SAB was added instead of bacterial culture. This plate was used as the control plate against which the test plate(s) could be read.
Test and control plates were sealed using autoclave tape and incubated for 48 hours anaerobically at 37° C.
A microtitre plate reader (Model MRX, Dynatech Laboratories) was preset to gently agitate the plates and mix the contents. The absorbance at 540 nm “A540” was used as a measure of turbidity resulting from bacterial growth. The control, un-inoculated plate for each set of samples was read first, and the plate reader then programmed to use the control readings to blank all other plate readings for the inoculated plates for the same set of test materials (i.e. removing turbidity and possible colour changes during incubation which are due to chemical interactions). Thus, the corrected readings generated were absorbances resulting from turbidity from bacterial growth. The MIC was taken as the lowest concentration of triclosan required to inhibit growth so that the change in absorbance during the incubation period was <0.2 A540. […]

[4] = flavour material against S. mutans R9, 48 hours anaerobically at 37° C., read-out: MIC (ppm)

Compound	Classes of Synergy, increase in inhibition; Antimicrobial Agent Triclosan [1]	Classes of Synergy, increase in inhibition; Antimicrobial Agent Zinc Sulphate [1]	Synergy Shown [2]	50% MIC without triclosan [2]	50% MIC and 8 ppm triclosan [2]	MIC [3, 4]	MIC ([3]; R9, 48 h, read-out: MIC for triclosan against S. mutans R9)	MIC ([3]; R9, 48 h)
O=C(OCc1ccccc1)c1ccccc1 [Benzyl benzoate, benzyl benzoate]	+ (+ = >15% increase in inhibition)	− (− = <15% increase in inhibition)						
CCCCCCCCCO [Alcohol C9, nonanol]	− (− = <15% increase in inhibition)	+ (+ = >15% increase in inhibition)	Yes	+	−	5000 µg/mL (≈ 34.7 mM)		
CCCCCCCCC=O [Aldehyde C9, nonanal]			Yes	+	−	5000 µg/mL (≈ 35.2 mM)		
CCCCCCCCCCO [Alcohol C10, decanol]	+ (+ = >15% increase in inhibition)	+ (+ = >15% increase in inhibition)	Yes	+	−	5000 µg/mL (≈ 31.6 mM)		
CCCC(=O)OCc1ccccc1 [Benzyl Butyrate, benzyl butyrate]	− (− = <15% increase in inhibition)							
CCCCCCCCCC=O [Aldehyde C10, decanal]			Yes	+	−	5000 µg/mL (≈ 32 mM)		
COC(=O)C=Cc1ccccc1 [Methyl Cinnamate, methyl cinnamate]	+ (+ = >15% increase in inhibition)	− (− = <15% increase in inhibition)						
Oc1cc(Cl)ccc1Oc1ccc(Cl)cc1Cl [triclosan, 2′,4,4′-trichloro-2-hydroxy-diphenyl ether, reference compound]							10 to 16 µg/mL (≈ 0.0345 to 0.0553 mM)	
O=C/C=C/c1ccccc1 [Cinnamic Aldehyde Extra, cinnamic aldehyde]			Yes	+	−			625 µg/mL (≈ 4.73 mM)
C/C=C/c1ccc(OC)cc1 [Anethole Synthetic, anethole synthetic]	− (− = <15% increase in inhibition)	− (− = <15% increase in inhibition)						
CC/C=C\CCO [Cis-3-hexenol, cis-3-hexenol]	− (− = <15% increase in inhibition)	+ (+ = >15% increase in inhibition)						
